Laboratory results as given in patent US20230286973A1, “PROTEIN SECRETION INHIBITORS” (KEZAR LIFE SCIENCES, priority 2020, published 2023).

Columns and labels:
[1] = Liver Microsome Stability Assay (mouse); details: mouse liver microsomes, with NADPH, 1.0 uM compound
Protocol: (§1) Stability of a compound was assessed in the presence of liver microsomes from various sources—mouse, rat, monkey and human liver microsomes. 1.0 uM compound, 0.4% DMSO in 0.1 M Potassium Phosphate with 1.0 mg/mL liver microsomes, were incubated at 37° C. with or without 1 mM NADPH. The samples were quenched at 0, and 30 minutes.

[2] = test system: IL-2-FL/Gaussia Luciferase; test: Dox Induced IL2-FL-Gluc Assay; type: cell-based; details: for IC50: 24 hr Dox induction, 293FRT/TO cells, read-out: 24 hr Dox Inducible IL2FLGluc 293FRT/TO: Mean IC50; for 24 hr Dox Inducible IL2FLGluc 293FRT/TO: IL2/PD1: ratio of IL2FLGluc IC50 to PD1ssGluc IC50
Outline: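 Compounds in DMSO/medium with doxycycline were applied to a 293 T-REx stable line expressing an IL-2 (aa 1-153)–Gaussia luciferase fusion under tetracycline-regulated control, cells seeded one day earlier; incubation at 37 °C, 5% CO2. Structures drawn without stereochemistry were tested as stereoisomer mixtures.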

[3] = test system: TNFα-FL/Gaussia Luciferase; test: Dox Induced TNFα-FL-Gluc Assay; type: cell-based; details: for IC50: 24 hr Dox induction, 293FRT/TO cells, read-out: 24 hr Dox Inducible TNFaFLGluc 293FRT/TO: Mean IC50; for 24 hr Dox Inducible TNFaFLGluc 293FRT/TO: TNF/PD1: ratio of TNFaFLGluc IC50 to PD1ssGluc IC50
Outline: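 Compound was added with doxycycline to cells plated a day earlier, incubating at 37° C under 5% CO2. The reporter line is 293 T-REx expressing a TNFα (1-233)–Gaussia luciferase fusion under tetracycline-regulated control.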

[4] = test system: multiple myeloma cell line NCI-H929; test: H929 Cell Viability Assay; type: cell-based, human; details: Homo sapiens, NCI-H929, 48 h, NCI-H929 cells, Celltiter-Glo
Outline: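 Luminescent CellTiter-Glo read-out of viability after a 48 h exposure (37° C, 5% CO2) of NCI-H929 myeloma cells to compound dilutions in RPMI 1640 plus 10% FBS. Data for structures drawn without stereochemistry refer to stereoisomer mixtures.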

[5] = Liver Microsome Stability Assay (monkey); details: monkey liver microsomes, with NADPH, 1.0 uM compound
Protocol: as §1

[6] = test system: multiple myeloma cell line U266B1; test: U266 Cell Viability Assay; type: cell-based, human; details: Homo sapiens, U-266, 48 h, U266B1 cells, Celltiter-Glo
Outline: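 CellTiter-Glo luminescence was read after a 48 h compound exposure (37 °C, 5% CO2) of human U266B1 myeloma cells grown in 10% FBS-supplemented RPMI 1640. Data for structures shown without defined stereochemistry refer to stereoisomer mixtures.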

[7] = Liver Microsome Stability Assay (rat); details: rat liver microsomes, with NADPH, 1.0 uM compound
Protocol: as §1

[8] = test system: PD1-ss+10aa/Gaussia Luciferase; test: Dox-Induced PD1-ss-Gluc Assay; type: cell-based; details: 24 hr Dox induction; 293FRT/TO cells; read-out: 24 hr Dox Inducible PD1ssGluc 293FRT/TO: Mean IC50
Outline: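 Stable Flp-In 293 T-REx cells carried a doxycycline-inducible construct of Gaussia luciferase fused to the PD1 signal sequence plus 10 amino acids. Cells were plated the day before, then treated with compound dilutions in DMSO/media containing doxycycline at 37 °C, 5% CO2.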

[9] = Liver Microsome Stability Assay (human); details: human liver microsomes, with NADPH, 1.0 uM compound
Protocol: as §1

[10] = test system: HER3-ss+4aa/Gaussia Luciferase; test: Dox-Induced Her3-ss-Gluc Assay; type: cell-based; details: 24 hr Dox induction; 293FRT/TO cells; read-out: 24 hr Dox Inducible Her3(ss + 4)Gluc 293FRT/TO: Mean IC50
Outline: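 Compounds were diluted in DMSO/media containing doxycycline. They were added to Flp-In 293 T-REx cells plated the previous day, then incubated at 37 °C under 5% CO2. These cells stably express, under T-REx control, Gaussia luciferase fused to the HER3 signal sequence plus 4 amino acids.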

Row | Structure (SMILES) | Liver Microsome Stability (Multiple Species): Mouse - % Remaining after 30 min w/NADPH [1] [%] | IC50 [2] [µM] | 24 hr Dox Inducible IL2FLGluc 293FRT/TO: IL2/PD1 [2] | IC50 [3] [µM] | 24 hr Dox Inducible TNFaFLGluc 293FRT/TO: TNF/PD1 [3] | EC50 [4] [µM] | Liver Microsome Stability (Multiple Species): Monkey - % Remaining after 30 min w/NADPH [5] [%] | EC50 [6] [µM] | Liver Microsome Stability (Multiple Species): Rat - % Remaining after 30 min w/NADPH [7] [%] | IC50 [8] [µM] | Liver Microsome Stability (Multiple Species): Human - % Remaining after 30 min w/NADPH [9] [%] | IC50 [10] [µM]
1 | O=C(Nc1nc(/C=C/c2cn3c(n2)CCC3)cs1)c1cccn1Cc1ccnc(F)c1 [Compound B62, (E)-N-(4-(2-(6,7-dihydro-5H-pyrrolo[1,2-a]imidazol-2-yl)vinyl)thiazol-2-yl)-1-((2-fluoropyridin-4-yl)methyl)-1H-pyrrole-2-carboxamide] | 11.5 | > 25 | >78 | > 25 | >77.9 | > 24.3 | 2.64 | > 25 | 2.51 | 0.321 | 0.2 | > 25
2 | CC(C)n1cnc(/C=C/c2csc(NC(=O)c3cccn3Cc3cccnc3)n2)c1 [Compound B63, (E)-N-(4-(2-(1-isopropyl-1H-imidazol-4-yl)vinyl)thiazol-2-yl)-1-(pyridin-3-ylmethyl)-1H-pyrrole-2-carboxamide] | 0.49 | > 25 | <=>1.2 | > 25 | <=>1.20 | > 25 | 0.09 | > 25 | 1.14 | > 20.9 | 6.56 | > 25
3 | CC(C)c1ccc(/C=C/c2csc(NC(=O)c3cccn3Cc3ccnc(F)c3)n2)nc1 [Compound B64, (E)-1-((2-fluoropyridin-4-yl)methyl)-N-(4-(2-(5-isopropylpyridin-2-yl)vinyl)thiazol-2-yl)-1H-pyrrole-2-carboxamide] | 0.29 | 1.72 | 84 | 18.4 | 894 | 15.7 | 0.12 | > 22.2 | 0.46 | 0.0206 | 0.37 | 0.784
4 | CCn1cnc(/C=C/c2csc(NC(=O)c3cccn3Cc3ccnc(F)c3)n2)c1 [Compound B65, (E)-N-(4-(2-(1-ethyl-1H-imidazol-4-yl)vinyl)thiazol-2-yl)-1-((2-fluoropyridin-4-yl)methyl)-1H-pyrrole-2-carboxamide] | 7.82 | > 25 | >210 | > 25 | >208 | 24.5 | 0.08 | > 25 | 4.75 | 0.12 | 0.18 | > 25
5 | CC(C)c1ccc(/C=C/c2csc(NC(=O)c3cccn3Cc3cccnc3)n2)nc1 [Compound B66, (E)-N-(4-(2-(5-isopropylpyridin-2-yl)vinyl)thiazol-2-yl)-1-(pyridin-3-ylmethyl)-1H-pyrrole-2-carboxamide] | 0.11 | > 25 | >1.6 | > 25 | >1.61 | 13.4 | 0.35 | > 25 | 0.18 | 15.5 | 0.09 | > 25
6 | CC(C)c1nc(/C=C/c2csc(NC(=O)c3cccn3Cc3ccnc(F)c3)n2)cn1C [Compound B67, (E)-1-((2-fluoropyridin-4-yl)methyl)-N-(4-(2-(2-isopropyl-1-methyl-1H-imidazol-4-yl)vinyl)thiazol-2-yl)-1H-pyrrole-2-carboxamide] | 2.2 | 19.1 | 3.6 | > 25 | >4.66 | 21 | 0.13 | 19.7 | 1.32 | 5.37 | 0.16 | 18.5
7 | CC(C)n1cnc(/C=C/c2csc(NC(=O)c3cccn3Cc3cc(F)nc(F)c3)n2)c1 [Compound B68, (E)-1-((2,6-difluoropyridin-4-yl)methyl)-N-(4-(2-(1-isopropyl-1H-imidazol-4-yl)vinyl)thiazol-2-yl)-1H-pyrrole-2-carboxamide] | 14 | > 25 | >72 | > 25 | >71.9 | 10.1 | 0.07 | 14.6 | 19.9 | 0.348 | 0.5 | 18.2
8 | CCn1cnc(/C=C/c2csc(NC(=O)c3cccn3Cc3ccncc3)n2)c1 [Compound B69, (E)-N-(4-(2-(1-ethyl-1H-imidazol-4-yl)vinyl)thiazol-2-yl)-1-(pyridin-4-ylmethyl)-1H-pyrrole-2-carboxamide] | 0.32 | > 25 | >210 | > 25 | >209 | > 25 | 0.04 | > 25 | 0.28 | 0.119 | 0.01 | > 25
